What was measured:
[1] = system: αvβ3 integrin; test: WOW-1 binding assay, HUVECs; type: cell-based, Human; conditions: FACS analysis
Protocol: Semiconfluent HUVECs were serum starved for 4 h and further stimulated with 20 ng/mL VEGF-A165 or VEGFDΔNΔC. WOW-1 Fab was added to a final concentration of 30 μg/mL, followed by addition of FITC-conjugated goat anti-mouse IgG at 10 μg/mL. After 30 min cells were fixed with 3.7% formaldehyde in PBS for 15 min, washed twice with PBS, and fluorescence-activated cell sorting (FACS) was performed using a FACS Calibur (Becton Dickinson, San Jose, Calif.) and data were analyzed using CellQuest software.

[2] = system: αvβ3 integrin; test: Fibrinogen binding assay (FACS); type: cell-based, mouse; conditions: DiYF EC; 20 ng/ml VEGF or 1 mM MnCl2
Protocol: (§1) To assess fibrinogen binding, semiconfluent wild type and DiYF mouse lung endothelial cells were serum starved for 4 h and further induced with 20 ng/ml VEGF-165, 20 ng/ml b-FGF or 1 mm MnC12. Fluorescein isothiocyanate (FITC)-labeled fibrinogen was added at a final concentration of 200 nM for 45 min. […] Fluorescence-activated cell sorting (FACS) was performed using a FACS Calibur (Becton Dickinson, San Jose, Calif.) and data were analyzed using CellQuest software program.

[3] = target: T1, αvβ3 integrin (Mus musculus, UniProt O54890+P43406); test: Fibrinogen binding assay (FACS); type: cell-based; conditions: WT EC; 20 ng/ml VEGF or 1 mM MnCl2
T1 construct: endogenous in cells; host or cells: primary mouse lung endothelial cells
T1 sequence (O54890 26-787): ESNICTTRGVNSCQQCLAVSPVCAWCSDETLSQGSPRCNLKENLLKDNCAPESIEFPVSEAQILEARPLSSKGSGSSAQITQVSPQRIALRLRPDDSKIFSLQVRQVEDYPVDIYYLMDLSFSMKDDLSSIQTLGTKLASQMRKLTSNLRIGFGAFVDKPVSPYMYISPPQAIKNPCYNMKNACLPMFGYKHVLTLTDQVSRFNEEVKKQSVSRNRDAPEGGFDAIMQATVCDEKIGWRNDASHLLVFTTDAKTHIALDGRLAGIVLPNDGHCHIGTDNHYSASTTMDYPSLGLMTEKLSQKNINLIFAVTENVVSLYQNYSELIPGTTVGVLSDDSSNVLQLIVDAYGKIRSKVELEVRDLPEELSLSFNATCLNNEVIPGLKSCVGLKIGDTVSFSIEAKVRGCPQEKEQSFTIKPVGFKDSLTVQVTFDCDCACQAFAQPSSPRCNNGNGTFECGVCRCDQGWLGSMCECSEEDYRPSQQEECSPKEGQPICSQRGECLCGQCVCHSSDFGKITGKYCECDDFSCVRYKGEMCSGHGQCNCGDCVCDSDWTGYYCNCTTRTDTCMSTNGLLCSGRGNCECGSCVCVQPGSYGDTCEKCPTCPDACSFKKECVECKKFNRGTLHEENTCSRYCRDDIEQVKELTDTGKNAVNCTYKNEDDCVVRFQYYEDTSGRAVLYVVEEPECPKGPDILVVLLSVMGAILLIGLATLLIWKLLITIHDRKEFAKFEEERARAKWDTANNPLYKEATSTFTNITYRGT
T1 sequence (P43406 31-885 limits assumed): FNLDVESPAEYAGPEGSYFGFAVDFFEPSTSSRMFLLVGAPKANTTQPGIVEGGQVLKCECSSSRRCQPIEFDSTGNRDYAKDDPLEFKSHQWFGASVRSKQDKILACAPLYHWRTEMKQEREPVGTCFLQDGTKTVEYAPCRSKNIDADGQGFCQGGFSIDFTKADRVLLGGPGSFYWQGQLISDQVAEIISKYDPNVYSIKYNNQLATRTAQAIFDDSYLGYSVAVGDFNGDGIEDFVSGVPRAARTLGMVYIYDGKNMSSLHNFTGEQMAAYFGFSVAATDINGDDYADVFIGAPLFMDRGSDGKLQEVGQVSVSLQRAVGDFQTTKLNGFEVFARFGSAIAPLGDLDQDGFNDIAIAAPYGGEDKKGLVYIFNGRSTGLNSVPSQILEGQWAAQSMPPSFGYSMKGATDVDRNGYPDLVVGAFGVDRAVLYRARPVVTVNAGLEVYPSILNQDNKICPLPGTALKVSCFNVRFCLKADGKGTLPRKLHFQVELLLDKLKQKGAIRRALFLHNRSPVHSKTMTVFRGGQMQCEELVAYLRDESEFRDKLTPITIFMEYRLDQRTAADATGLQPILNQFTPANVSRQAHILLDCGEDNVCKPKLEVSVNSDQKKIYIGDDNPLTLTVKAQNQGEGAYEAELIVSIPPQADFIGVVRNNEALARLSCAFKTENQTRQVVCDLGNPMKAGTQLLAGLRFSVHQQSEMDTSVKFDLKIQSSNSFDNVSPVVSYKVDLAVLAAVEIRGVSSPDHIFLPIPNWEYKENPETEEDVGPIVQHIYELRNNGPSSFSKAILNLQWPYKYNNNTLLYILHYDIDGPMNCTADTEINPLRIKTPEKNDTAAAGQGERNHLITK
T1 sequence (P43406 887-1044 limits assumed): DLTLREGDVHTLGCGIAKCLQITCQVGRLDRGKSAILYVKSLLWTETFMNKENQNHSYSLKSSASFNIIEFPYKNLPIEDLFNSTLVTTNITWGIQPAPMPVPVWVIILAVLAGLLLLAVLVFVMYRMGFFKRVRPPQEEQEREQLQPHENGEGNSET
Protocol: as §1

[4] = system: αvβ3 integrin; test: WOW-1 binding assay, mouse lung endothelial cells; type: cell-based; conditions: DiYF EC; 20 ng/ml VEGF or 1 mM MnCl2
Protocol: (§2) Wild type and DiYF mouse lung endothelial cells were serum starved for 4 h and further stimulated with 20 ng/ml VEGF-165, 20 ng/ml b-FGF or 1 mm MnC12 separately. WoW-1 Fab was added at a final concentration of […], followed by addition of Fluorescein isothiocyanate (FITC) conjugated goat anti-mouse IgG at 10 μg/ml. After 30 min cells were fixed with 3.7% formaldehyde/PBS for 15 min, washed twice with 1×PBS and FACS was performed using a FACS Calibur (Becton Dickinson, San Jose, Calif.) instrument and data were analyzed using CellQuest software program.

[5] = target: T1, αvβ3 integrin; test: WOW-1 binding assay, mouse lung endothelial cells; type: cell-based; conditions: WT EC; 20 ng/ml VEGF or 1 mM MnCl2
Protocol: as §2

increase of fibrinogen binding [2]: 3 fold
increase of fibrinogen binding [3]: at least 6 fold
increase in WOW-1 binding [5]: 9 fold
Substance: VEGF
increase of WOW-1 binding to EC compared to resting cells [1]: 6 fold
increase in WOW-1 binding [4]: 3.5 fold
